Assay results taken from EPA's ToxRefDB 2.

Key:
rat [1] = conditions: Fertility (Segment I), sprague dawley, Oral, Gavage/Intubation, dose end: 7 GD
rat [2] = conditions: Sub-acute repeat dose toxicity, sprague dawley, Oral, Gavage/Intubation, dose end: 28 day, group: systemic
rat [3] = conditions: Chronic toxicity; sprague dawley; Oral; Gavage/Intubation; dose end: 6 month; group: systemic; systemic / clinical chemistry / alanine aminotransferase (alt/sgpt) / alanine aminotransferase (alt/sgpt) + systemic / clinical chemistry / …
rat [4] = conditions: Chronic toxicity, sprague dawley, Oral, Gavage/Intubation, dose end: 6 month, group: systemic
rat [5] = conditions: Fertility (Segment I), sprague dawley, Oral, Gavage/Intubation, dose end: 49 day
dog [6] = conditions: Sub-acute repeat dose toxicity; beagle; Oral; Capsule; dose end: 1 month; group: systemic; systemic / clinical chemistry / glucose / glucose + systemic / in life observation / body weight / body weight + systemic / in life …
rat [7] = conditions: Fertility (Segment I), sprague dawley, Oral, Gavage/Intubation, dose end: 7 GD; remark: listed apart in the source
dog [8] = conditions: Chronic toxicity; beagle; Oral; Capsule; dose end: 6 month; group: systemic; systemic / clinical chemistry / potassium / potassium + systemic / in life observation / body weight / body weight + systemic / in life …
rat [9] = conditions: Prenatal developmental toxicity study, sprague dawley, Oral, Gavage/Intubation, dose end: 17 GD, group: maternal
dog [10] = conditions: Sub-acute repeat dose toxicity; beagle; Oral; Gavage/Intubation; dose end: 14 day; group: systemic; systemic / in life observation / clinical signs / emesis + systemic / in life observation / clinical signs / salivation + systemic / in life…
mouse [11] = conditions: Chronic toxicity, Oral, Gavage/Intubation, dose end: 186 day, group: systemic
rat [12] = conditions: Sub-acute repeat dose toxicity, Oral, Gavage/Intubation, dose end: 7 day, group: systemic
rabbit [13] = conditions: Sub-acute repeat dose toxicity, Oral, Gavage/Intubation, dose end: 7 day, group: systemic
rat [14] = conditions: Sub-acute repeat dose toxicity, Oral, Gavage/Intubation, dose end: 14 day, group: systemic
rabbit [15] = conditions: Prenatal developmental toxicity study, Oral, Gavage/Intubation, dose end: 19 GD
mouse [16] = conditions: Sub-acute repeat dose toxicity, Oral, Gavage/Intubation, dose end: 7 day, group: systemic
mouse [17] = conditions: Sub-acute repeat dose toxicity, Oral, Gavage/Intubation, dose end: 7 day, group: systemic; remark: listed apart in the source
dog [18] = conditions: Subchronic oral toxicity in nonrodent, beagle, Gavage/Intubation, dose end: 90 day, group: systemic
[19] = group: maternal, reproductive / reproductive performance / estrous cycle / abnormal + reproductive / reproductive performance / estrous cycle / corpora lutea…
[20] = group: maternal, reproductive / reproductive performance / implantations / implantations
[21] = group: parental, systemic / in life observation / body weight / body weight gain + systemic / in life observation / clinical signs / abnormal respiratory …
[22] = systemic / clinical chemistry / alanine aminotransferase (alt/sgpt) / alanine aminotransferase (alt/sgpt) + systemic / clinical chemistry / …
[23] = systemic / clinical chemistry / alanine aminotransferase (alt/sgpt) / alanine aminotransferase (alt/sgpt) + systemic / in life observation…
[24] = systemic / clinical chemistry / albumin / albumin + systemic / clinical chemistry / alkaline phosphatase (alp/alk) / alkaline phosphatase (…
[25] = systemic / clinical chemistry / albumin / albumin + systemic / clinical chemistry / aspartate aminotransferase (ast/sgot) / aspartate …
[26] = group: maternal, reproductive / reproductive performance / fertility / fertility + reproductive / reproductive performance / pregnancy index / pregnancy …
[27] = group: parental, systemic / in life observation / body weight / body weight + systemic / in life observation / body weight / body weight gain + systemic / in…
[28] = group: maternal, reproductive / offspring survival early / litter viability other / total litter loss + reproductive / reproductive performance / estrous …
[29] = group: maternal, reproductive / reproductive performance / fertility / fertility + reproductive / reproductive performance / precoital interval / precoital …
[30] = group: parental, systemic / in life observation / clinical signs / alopecia + systemic / in life observation / body weight / body weight gain + systemic / in…
[31] = reproductive / reproductive performance / implantations / implantations + reproductive / reproductive performance / postimplantation loss / …
[32] = systemic / in life observation / body weight / body weight + systemic / in life observation / body weight / body weight gain + systemic / in…
[33] = systemic / clinical chemistry / alkaline phosphatase (alp/alk) / alkaline phosphatase (alp/alk) + systemic / clinical chemistry / …
[34] = systemic / clinical chemistry / bilirubin / total bilirubin + systemic / in life observation / body weight / body weight + systemic / organ …
[35] = systemic / clinical chemistry / cholesterol / cholesterol + systemic / clinical chemistry / protein / protein + systemic / hematology / …
[36] = systemic / clinical chemistry / cholesterol / cholesterol + systemic / hematology / eosinophils / eosinophils + systemic / clinical …
[37] = systemic / in life observation / body weight / body weight + systemic / in life observation / clinical signs / tachypnea + systemic / in …
[38] = systemic / clinical chemistry / cytochrome p450, nos / cytochrome p450, nos + systemic / clinical chemistry / glucose / glucose + systemic…
[39] = systemic / clinical chemistry / cytochrome p450, nos / cytochrome p450, nos + systemic / in life observation / clinical signs / lacrimation …
[40] = systemic / clinical chemistry / cholesterol / cholesterol + systemic / pathology microscopic / liver / vacuolization + systemic / clinical …
[41] = systemic / clinical chemistry / creatinine / creatinine + systemic / clinical chemistry / potassium / potassium + systemic / in life …
[42] = systemic / organ weight / liver / absolute
[43] = systemic / clinical chemistry / alkaline phosphatase (alp/alk) / alkaline phosphatase (alp/alk)

SMILES: CCc1c(C(=O)NN2CCCCC2)nn(-c2ccc(Cl)cc2Cl)c1-c1ccc(Br)cc1 [Surinabant]
- LOAEL (rat [1]; [19]): 50 mg/kg/day
- NOAEL (rat [1]; [19]): 10 mg/kg/day
- LEL (rat [1]; [20]): 10 mg/kg/day
- NEL (rat [1]; [20]): < 10 mg/kg/day
- LEL (rat [1]; [21]): 10 mg/kg/day
- LOAEL (rat [1]; [21]): > 100 mg/kg/day
- NEL (rat [1]; [21]): < 10 mg/kg/day
- NOAEL (rat [1]; [21]): ≥ 100 mg/kg/day
- LOAEL (rat [2]; [22]): > 300 mg/kg/day
- NOAEL (rat [2]; [22]): ≥ 300 mg/kg/day
- LEL (rat [2]; [23]): 30 mg/kg/day
- NEL (rat [2]; [23]): < 30 mg/kg/day
- LEL (rat [3]): 30 mg/kg/day
- LOAEL (rat [3]): > 60 mg/kg/day
- NEL (rat [3]): < 30 mg/kg/day
- NOAEL (rat [3]): ≥ 60 mg/kg/day
- LOAEL (rat [4]; [24]): > 100 mg/kg/day
- NOAEL (rat [4]; [24]): ≥ 100 mg/kg/day
- LEL (rat [4]; [25]): 10 mg/kg/day
- NEL (rat [4]; [25]): < 10 mg/kg/day
- LEL (rat [5]; [26]): 300 mg/kg/day
- LOAEL (rat [5]; [26]): 300 mg/kg/day
- NEL (rat [5]; [26]): 100 mg/kg/day
- NOAEL (rat [5]; [26]): 100 mg/kg/day
- LEL (rat [5]; [27]): 100 mg/kg/day
- NEL (rat [5]; [27]): < 100 mg/kg/day
- LOAEL (rat [5]; group: parental, systemic / pathology gross / sperm measure / sperm count): 300 mg/kg/day
- NOAEL (rat [5]; group: parental, systemic / pathology gross / sperm measure / sperm count + systemic / in life observation / body weight / body weight + systemic / in life …): 100 mg/kg/day
- LEL (dog [6]): 10 mg/kg/day
- LOAEL (dog [6]): 10 mg/kg/day
- NEL (dog [6]): < 10 mg/kg/day
- NOAEL (dog [6]): < 10 mg/kg/day
- LOAEL (rat [7]; [28]): > 1000 mg/kg/day
- NOAEL (rat [7]; [28]): ≥ 1000 mg/kg/day
- LEL (rat [7]; [29]): 10 mg/kg/day
- NEL (rat [7]; [29]): < 10 mg/kg/day
- LEL (rat [7]; [30]): 10 mg/kg/day
- LOAEL (rat [7]; [30]): > 1000 mg/kg/day
- NEL (rat [7]; [30]): < 10 mg/kg/day
- NOAEL (rat [7]; [30]): ≥ 1000 mg/kg/day
- LEL (dog [8]): 1.5 mg/kg/day
- LOAEL (dog [8]): 1.5 mg/kg/day
- NEL (dog [8]): < 1.5 mg/kg/day
- NOAEL (dog [8]): < 1.5 mg/kg/day
- LOAEL (rat [9]; [31]): > 100 mg/kg/day
- NOAEL (rat [9]; [31]): ≥ 100 mg/kg/day
- LEL (rat [9]; [32]): 10 mg/kg/day
- NEL (rat [9]; [32]): < 10 mg/kg/day

SMILES: CCc1nn(CCO)c(CC)c1Oc1cc(C#N)cc(C#N)c1 [Lersivirine]
- LEL (dog [10]): 5 mg/kg/day
- LOAEL (dog [10]): > 150 mg/kg/day
- NEL (dog [10]): < 5 mg/kg/day
- NOAEL (dog [10]): ≥ 150 mg/kg/day
- LEL (mouse [11]; [33]): 70 mg/kg/day
- NEL (mouse [11]; [33]): < 70 mg/kg/day
- LOAEL (mouse [11]; [34]): > 700 mg/kg/day
- NOAEL (mouse [11]; [34]): ≥ 700 mg/kg/day
- LEL (rat [12]; [35]): 70 mg/kg/day
- NEL (rat [12]; [35]): < 70 mg/kg/day
- LOAEL (rat [12]; [36]): > 1000 mg/kg/day
- NOAEL (rat [12]; [36]): ≥ 1000 mg/kg/day
- LOAEL (rabbit [13]; [37]): > 500 mg/kg/day
- NEL (rabbit [13]; [37]): 20 mg/kg/day
- NOAEL (rabbit [13]; [37]): ≥ 500 mg/kg/day
- LEL (rabbit [13]; systemic / in life observation / clinical signs / tachypnea + systemic / in life observation / food consumption / food consumption): 200 mg/kg/day
- LOAEL (rat [14]; [38]): > 300 mg/kg/day
- NOAEL (rat [14]; [38]): ≥ 300 mg/kg/day
- LEL (rat [14]; [39]): 20 mg/kg/day
- NEL (rat [14]; [39]): < 20 mg/kg/day
- NEL (rabbit [15]; group: developmental, developmental / developmental malformation / bone / absent + developmental / developmental malformation / bone / fused): 250 mg/kg/day
- NEL (rabbit [15]; group: maternal, reproductive / reproductive performance / postimplantation loss / postimplantation loss): < 100 mg/kg/day
- LOAEL (mouse [16]; [40]): > 250 mg/kg/day
- NOAEL (mouse [16]; [40]): ≥ 250 mg/kg/day
- NEL (mouse [16]; systemic / organ weight / liver / absolute + systemic / pathology microscopic / liver / hypertrophy): < 35 mg/kg/day
- LOAEL (mouse [17]; [41]): > 750 mg/kg/day
- NOAEL (mouse [17]; [41]): ≥ 750 mg/kg/day
- LEL (mouse [17]; [42]): 70 mg/kg/day
- NEL (mouse [17]; [42]): < 70 mg/kg/day
- LOAEL (dog [18]; [22]): > 60 mg/kg/day
- NOAEL (dog [18]; [22]): ≥ 60 mg/kg/day
- LEL (dog [18]; [43]): 7 mg/kg/day
- NEL (dog [18]; [43]): < 7 mg/kg/day
